Measurements taken from ChEMBL document CHEMBL1201862, “PubChem BioAssay data set” (2004).
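Method: 48-hour compound exposure of cells in 96-well plates, five concentrations, linear interpolation of endpoints. GI50 is the concentration that inhibits growth by half.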 Activity calls are given as the source filed them. Cut-off read from the data, not from the text of the source: active = GI50 up to about 1.1 µM and inactive = higher.

Legend:
Experiment in all cases: NCI anticancer screen, dose series, 48 h
786-0 = system: 786-0
A498 = system: A498
ACHN = system: ACHN
EKVX = system: EKVX
HCC 2998 = system: HCC 2998
HOP-62 = system: HOP-62
Hs-578T = system: Hs-578T
LOX IMVI = system: LOX IMVI
MOLT-4 = system: MOLT-4
RXF 393 = system: RXF 393
SF-295 = system: SF-295
SF-539 = system: SF-539
SK-OV-3 = system: SK-OV-3
SN12C = system: SN12C
SR = system: SR
UACC-62 = system: UACC-62
UO-31 = system: UO-31
SK-MEL-28 = system: SK-MEL-28
SNB-75 = system: SNB-75

Compound	GI50 (786-0)	GI50 (A498)	GI50 (ACHN)	GI50 (EKVX)	GI50 (HCC 2998)	GI50 (HOP-62)	GI50 (Hs-578T)	GI50 (LOX IMVI)	GI50 (MOLT-4)	GI50 (RXF 393)	GI50 (SF-295)	GI50 (SF-539)	GI50 (SK-OV-3)	GI50 (SN12C)	GI50 (SR)	GI50 (UACC-62)	GI50 (UO-31)	GI50 (SK-MEL-28)	GI50 (SNB-75)
Cc1nnc2sc(-c3ccc([N+](=O)[O-])o3)nn12	10.3 µM (inactive)	45.5 µM (inactive)	11.2 µM (inactive)	20.5 µM (inactive)	12.5 µM (inactive)	15.2 µM (inactive)	30.3 µM (inactive)	3.56 µM (inactive)	3.15 µM (inactive)	11.6 µM (inactive)	16.9 µM (inactive)	4.84 µM (inactive)	18.7 µM (inactive)	11.6 µM (inactive)	8.61 µM (inactive)	10.4 µM (inactive)	15.2 µM (inactive)	–	–
COC(=O)[C@@H]1[C@@H]2NC(=S)N[C@@]1(C)Oc1ccccc12	75.7 µM (inactive)	> 100 µM (inactive)	87.9 µM (inactive)	52.5 µM (inactive)	41.6 µM (inactive)	89.3 µM (inactive)	51.9 µM (inactive)	37.6 µM (inactive)	0.324 µM (active)	> 100 µM (inactive)	38.5 µM (inactive)	37.7 µM (inactive)	47.8 µM (inactive)	46.2 µM (inactive)	95.3 µM (inactive)	78.3 µM (inactive)	> 100 µM (inactive)	> 100 µM (inactive)	27.4 µM (inactive)
O=C(NNc1ccnc2cc(Cl)ccc12)/C(=C\c1ccccc1Cl)NC(=O)c1ccccc1	41.6 µM (inactive)	–	25.4 µM (inactive)	31.8 µM (inactive)	60 µM (inactive)	19.2 µM (inactive)	32.5 µM (inactive)	17.4 µM (inactive)	–	27.2 µM (inactive)	27.5 µM (inactive)	27.7 µM (inactive)	> 100 µM (inactive)	38.1 µM (inactive)	35 µM (inactive)	21 µM (inactive)	38.9 µM (inactive)	> 100 µM (inactive)	39.3 µM (inactive)
COC(=O)[C@H](Cc1ccccc1)NC(=O)CCCCCCC(=O)NO	28.6 µM (inactive)	–	> 100 µM (inactive)	> 100 µM (inactive)	16.1 µM (inactive)	–	12.6 µM (inactive)	15.4 µM (inactive)	2.7 µM (inactive)	5.05 µM (inactive)	10.7 µM (inactive)	20.6 µM (inactive)	15.2 µM (inactive)	> 100 µM (inactive)	4.89 µM (inactive)	11.5 µM (inactive)	33.4 µM (inactive)	> 100 µM (inactive)	–
CC1CCC/C1=C(/I)C(=O)c1ccccc1 (configuration not stated)	> 100 µM (inactive)	–	> 100 µM (inactive)	> 100 µM (inactive)	> 100 µM (inactive)	> 100 µM (inactive)	> 100 µM (inactive)	9.16 µM (inactive)	19.2 µM (inactive)	> 100 µM (inactive)	27 µM (inactive)	> 100 µM (inactive)	> 100 µM (inactive)	> 100 µM (inactive)	30.8 µM (inactive)	86.7 µM (inactive)	> 100 µM (inactive)	> 100 µM (inactive)	16.1 µM (inactive)
COc1ccc2c(-c3ccc(O)cc3)c(Oc3ccccc3)c(=O)oc2c1	12.3 µM (inactive)	> 31.4 µM (inactive)	> 34.4 µM (inactive)	4.89 µM (inactive)	18.3 µM (inactive)	31.1 µM (inactive)	> 50 µM (inactive)	8.61 µM (inactive)	5.11 µM (inactive)	11.8 µM (inactive)	25.5 µM (inactive)	24.7 µM (inactive)	6.49 µM (inactive)	–	3.24 µM (inactive)	> 24.4 µM (inactive)	3.13 µM (inactive)	96.8 µM (inactive)	> 33.9 µM (inactive)
COc1cc2c(cc1OC)C1CCc3ccccc3CN1CC2 (configuration not stated)	> 100 µM (inactive)	> 100 µM (inactive)	> 100 µM (inactive)	> 100 µM (inactive)	> 100 µM (inactive)	> 100 µM (inactive)	> 100 µM (inactive)	> 100 µM (inactive)	> 100 µM (inactive)	> 100 µM (inactive)	> 100 µM (inactive)	> 100 µM (inactive)	> 100 µM (inactive)	> 100 µM (inactive)	> 100 µM (inactive)	> 100 µM (inactive)	–	> 100 µM (inactive)	> 100 µM (inactive)
Cn1c2ccccc2n2c3ncccc3/c(=N/CCCC(=O)O)c(C#N)c12	> 100 µM (inactive)	> 100 µM (inactive)	> 100 µM (inactive)	> 100 µM (inactive)	> 100 µM (inactive)	> 100 µM (inactive)	> 100 µM (inactive)	> 100 µM (inactive)	> 100 µM (inactive)	> 100 µM (inactive)	> 100 µM (inactive)	–	> 100 µM (inactive)	> 100 µM (inactive)	> 100 µM (inactive)	> 100 µM (inactive)	> 100 µM (inactive)	> 100 µM (inactive)	> 100 µM (inactive)
OC(CC(CC(O)(C(F)(F)F)C(F)(F)F)=NN=C(CC(O)(C(F)(F)F)C(F)(F)F)CC(O)(C(F)(F)F)C(F)(F)F)(C(F)(F)F)C(F)(F)F	> 10 µM (inactive)	> 10 µM (inactive)	> 10 µM (inactive)	> 10 µM (inactive)	> 10 µM (inactive)	> 10 µM (inactive)	> 10 µM (inactive)	> 10 µM (inactive)	> 10 µM (inactive)	> 10 µM (inactive)	> 10 µM (inactive)	> 10 µM (inactive)	> 10 µM (inactive)	> 10 µM (inactive)	> 10 µM (inactive)	> 10 µM (inactive)	–	> 10 µM (inactive)	> 10 µM (inactive)
COc1cc2cc(C(=O)N3CC(CCl)c4c3cc(O)c3ccccc43)[nH]c2c(OC)c1OC (configuration not stated)	< 0.005 µM (active)	< 0.005 µM (active)	< 0.005 µM (active)	< 0.005 µM (active)	< 0.005 µM (active)	< 0.005 µM (active)	< 0.005 µM (active)	< 0.005 µM (active)	< 0.005 µM (active)	< 0.005 µM (active)	< 0.005 µM (active)	< 0.005 µM (active)	< 0.005 µM (active)	–	< 0.005 µM (active)	< 0.005 µM (active)	< 0.005 µM (active)	< 0.005 µM (active)	< 0.005 µM (active)
O=C(Nc1ccccc1)c1cc(S(=O)(=O)Nc2n[nH]c(=O)n2-c2ccccc2)c(S)cc1Cl	> 100 µM (inactive)	> 100 µM (inactive)	–	> 100 µM (inactive)	> 100 µM (inactive)	–	> 100 µM (inactive)	> 100 µM (inactive)	> 100 µM (inactive)	> 100 µM (inactive)	–	> 100 µM (inactive)	> 100 µM (inactive)	> 100 µM (inactive)	> 100 µM (inactive)	> 100 µM (inactive)	> 100 µM (inactive)	> 100 µM (inactive)	> 100 µM (inactive)
Cc1ccc(S(=O)(=O)N2CCN(S(=O)(=O)c3ccc(C)cc3)Cc3ccccc3C2)cc1	35.2 µM (inactive)	–	36.9 µM (inactive)	> 100 µM (inactive)	> 100 µM (inactive)	20.5 µM (inactive)	24.5 µM (inactive)	> 100 µM (inactive)	> 100 µM (inactive)	–	31 µM (inactive)	> 100 µM (inactive)	–	53.2 µM (inactive)	> 100 µM (inactive)	10.1 µM (inactive)	> 100 µM (inactive)	> 100 µM (inactive)	–
O=C1NC(=O)C(c2c[nH]c3ccccc23)=C1c1cn(C(c2ccccc2)(c2ccccc2)c2ccccc2)cn1	6.52 µM (inactive)	5.32 µM (inactive)	4.8 µM (inactive)	4.19 µM (inactive)	4.63 µM (inactive)	–	20.8 µM (inactive)	6.95 µM (inactive)	2.48 µM (inactive)	4.52 µM (inactive)	5.27 µM (inactive)	15.4 µM (inactive)	14.7 µM (inactive)	5.7 µM (inactive)	2.7 µM (inactive)	12.5 µM (inactive)	–	16.2 µM (inactive)	10.2 µM (inactive)
CCCCOC(=O)NC(Nc1ccc(S(=O)(=O)Nc2ncccn2)cc1)(C(F)(F)F)C(F)(F)F	> 100 µM (inactive)	> 100 µM (inactive)	> 100 µM (inactive)	> 100 µM (inactive)	33.5 µM (inactive)	> 100 µM (inactive)	> 100 µM (inactive)	> 100 µM (inactive)	> 100 µM (inactive)	> 100 µM (inactive)	> 100 µM (inactive)	> 100 µM (inactive)	> 100 µM (inactive)	> 100 µM (inactive)	78.2 µM (inactive)	> 100 µM (inactive)	21.7 µM (inactive)	> 100 µM (inactive)	–
O=C(O)CCC(/N=C(\C(=N\C(CCC(=O)O)C(=O)O)c1ccccc1)c1ccccc1)C(=O)O (configuration not stated)	> 100 µM (inactive)	> 100 µM (inactive)	> 100 µM (inactive)	> 100 µM (inactive)	> 100 µM (inactive)	> 100 µM (inactive)	> 100 µM (inactive)	> 100 µM (inactive)	> 100 µM (inactive)	> 100 µM (inactive)	> 100 µM (inactive)	–	> 100 µM (inactive)	> 100 µM (inactive)	> 100 µM (inactive)	> 100 µM (inactive)	> 100 µM (inactive)	> 100 µM (inactive)	> 100 µM (inactive)
O=C(CCCn1ccnc1[N+](=O)[O-])NCCn1ccnc1	> 100 µM (inactive)	> 100 µM (inactive)	> 100 µM (inactive)	–	> 100 µM (inactive)	> 100 µM (inactive)	> 100 µM (inactive)	–	> 100 µM (inactive)	–	> 100 µM (inactive)	> 100 µM (inactive)	> 100 µM (inactive)	> 100 µM (inactive)	> 100 µM (inactive)	> 100 µM (inactive)	> 100 µM (inactive)	> 100 µM (inactive)	> 100 µM (inactive)
